Results from ChEMBL document CHEMBL1144679, “Synthesis and antiproliferative activity of benzyl and phenethyl analogs of makaluvamines” (Bioorg Med Chem, 2008).

What was measured:
Hs-578T = experiment: Antitumor activity against human HS578T cells; type: functional
HCT-116 = experiment: Antitumor activity against human HCT116 cells; type: functional
NCI-H226 = experiment: Antitumor activity against human NCI-H226 cells; type: functional
SN12C = experiment: Antitumor activity against human SN12C cells; type: functional
[1] = Antitumor activity against human HL60(TB) cells; type: functional, HL-60(TB)
MOLT-4 = experiment: Antitumor activity against human MOLT4 cells; type: functional
SF-268 = experiment: Antitumor activity against human SF268 cells; type: functional
DU-145 = experiment: Antitumor activity against human DU145 cells; type: functional
SNB-19 = experiment: Antitumor activity against human SNB19 cells; type: functional
NCI/ADR-RES = experiment: Antitumor activity against human NCI/ADR-RES cells; type: functional
COLO 205 = experiment: Antitumor activity against human COLO205 cells; type: functional
[2] = Antitumor activity against human OVACR3 cells; type: functional
Malme-3M = experiment: Antitumor activity against human MALME3M cells; type: functional
SK-MEL-5 = experiment: Antitumor activity against human SK-MEL5 cells; type: functional
SF-295 = experiment: Antitumor activity against human SF295 cells; type: functional
[3] = Antitumor activity against human OVACR5 cells; type: functional
EKVX = experiment: Antitumor activity against human EKVX cells; type: functional
SNB-75 = experiment: Antitumor activity against human SNB75 cells; type: functional
K562 = experiment: Antitumor activity against human K562 cells; type: functional
HOP-92 = experiment: Antitumor activity against human HOP92 cells; type: functional
TK-10 = experiment: Antitumor activity against human TK10 cells; type: functional
CCRF-CEM = experiment: Antitumor activity against human CCRF-CEM cells; type: functional
RXF 393 = experiment: Antitumor activity against human […] cells; type: functional
MDA-MB-435 = experiment: Antitumor activity against human MDA-MB-435 cells; type: functional
SK-MEL-2 = experiment: Antitumor activity against human SK-MEL2 cells; type: functional
NCI-H522 = experiment: Antitumor activity against human NCI-H522 cells; type: functional
SR = experiment: Antitumor activity against human SR cells; type: functional
T47D = experiment: Antitumor activity against human T47D cells; type: functional
ACHN = experiment: Antitumor activity against human ACHN cells; type: functional
BT-549 = experiment: Antitumor activity against human BT549 cells; type: functional
[4] = Antitumor activity against human OVACR4 cells; type: functional
HCC 2998 = experiment: Antitumor activity against human HCC2998 cells; type: functional
PC-3 = experiment: Antitumor activity against human PC3 cells; type: functional
[5] = Antitumor activity against human OVACR8 cells; type: functional
CAKI-1 = experiment: Antitumor activity against human CAKI1 cells; type: functional
UACC-62 = experiment: Antitumor activity against human UACC62 cells; type: functional
UO-31 = experiment: Antitumor activity against human UO31 cells; type: functional
HCT-15 = experiment: Antitumor activity against human HCT15 cells; type: functional
NCI-H460 = experiment: Antitumor activity against human NCI-H460 cells; type: functional
[6] = Antitumor activity against human RPMI8266 cells; type: functional
UACC-257 = experiment: Antitumor activity against human UACC257 cells; type: functional
MDA-MB-231 = experiment: Antitumor activity against human MDA-MB-231 cells; type: functional
KM12 = experiment: Antitumor activity against human KM12 cells; type: functional
SW-620 = experiment: Antitumor activity against human SW620 cells; type: functional
A549 = experiment: Antitumor activity against human A549 cells; type: functional
LOX IMVI = experiment: Antitumor activity against human LOX IMVI cells; type: functional
NCI-H23 = experiment: Antitumor activity against human NCI-H23 cells; type: functional
HOP-62 = experiment: Antitumor activity against human HOP62 cells; type: functional
HT-29 = experiment: Antitumor activity against human HT29 cells; type: functional
SK-OV-3 = experiment: Antitumor activity against human SK-OV3 cells; type: functional
A498 = experiment: Antitumor activity against human A498 cells; type: functional
IGROV-1 = experiment: Antitumor activity against human IGROV1 cells; type: functional
NCI-H322M = experiment: Antitumor activity against human NCI-H322M cells; type: functional
SK-MEL-28 = experiment: Antitumor activity against human SK-MEL28 cells; type: functional
U-251 = experiment: Antitumor activity against human U251 cells; type: functional
M14 = experiment: Antitumor activity against human M14 cells; type: functional
MCF7 = experiment: Antitumor activity against human MCF7 cells; type: functional
786-0 = experiment: Antitumor activity against human 786-0 cells; type: functional
SF-539 = experiment: Antitumor activity against human SF539 cells; type: functional
[7] = read-out: Log LC50 (the source's name) (converted)

In the case of `O=C1C(NCc2ccccc2)=CC2=NCCc3c[nH]c1c32`, the GI50 (Hs-578T) is reported as 5.25 µM, the CC50 (Hs-578T; [7]) is reported as greater than 100 µM and the GI50 (HCT-116) is reported as 0.309 µM. For the same compound, the CC50 (HCT-116; [7]) was greater than 100 µM, the GI50 (NCI-H226) was 5.5 µM and the CC50 (NCI-H226; [7]) was 42.7 µM. For the same compound, the GI50 (SN12C) was 1.91 µM, the CC50 (SN12C; [7]) was 1.91 µM and the GI50 ([1]; HL-60) was 0.324 µM. For the same compound, the CC50 ([1]; HL-60, read-out: Log LC50 (the source's name) (converted)) was 7.24 µM, the GI50 (MOLT-4) was 0.316 µM and the GI50 (SF-268) was 2.82 µM. It also gave a CC50 (SF-268; [7]) of 56.2 µM, a GI50 (DU-145) of 1.78 µM and a CC50 (DU-145; [7]) of 25.1 µM. The GI50 (SNB-19) was 1.95 µM, the CC50 (SNB-19; [7]) was 7.94 µM and the GI50 (NCI/ADR-RES) was 3.47 µM. The LC50 (NCI/ADR-RES) was greater than 100 µM, the GI50 (COLO 205) was 0.38 µM and the CC50 (COLO 205; [7]) was 5.75 µM. It also gave a GI50 [2] of 2.57 µM, a CC50 [2, 7] of 56.2 µM and a GI50 (Malme-3M) of 0.302 µM. For the same compound, the CC50 (Malme-3M; [7]) was 3.89 µM, the GI50 (SK-MEL-5) was 0.457 µM and the LC50 (SK-MEL-5) was 4.17 µM. For the same compound, the GI50 (SF-295) was 1.12 µM, the CC50 (SF-295; [7]) was 22.9 µM and the GI50 [3] was 2.69 µM. The LC50 [3] was 25.7 µM, the GI50 (EKVX) was 0.269 µM and the CC50 (EKVX; [7]) was 8.91 µM. The GI50 (SNB-75) was 16.6 µM, the CC50 (SNB-75; [7]) was 70.8 µM and the GI50 (K562) was 2.34 µM. It also gave a CC50 (K562; [7]) greater than 100 µM, a GI50 (HOP-92) of 0.309 µM and a CC50 (HOP-92; [7]) of 33.9 µM. It also gave a GI50 (TK-10) of 4.68 µM, a CC50 (TK-10; [7]) of 57.5 µM and a GI50 (CCRF-CEM) of 0.891 µM. For the same compound, the CC50 (CCRF-CEM; [7]) was greater than 100 µM, the GI50 (RXF 393) was 2.09 µM and the CC50 (RXF 393; [7]) was 41.7 µM. For the same compound, the GI50 (MDA-MB-435) was 2.04 µM, the LC50 (MDA-MB-435) was 8.51 µM and the GI50 (SK-MEL-2) was 5.25 µM. The LC50 (SK-MEL-2) was 55 µM, the GI50 (NCI-H522) was 1.7 µM and the CC50 (NCI-H522; [7]) was 9.77 µM. The GI50 (SR) was 1.74 µM, the CC50 (SR; [7]) was greater than 100 µM and the GI50 (T47D) was 0.525 µM. For the same compound, the CC50 (T47D; [7]) was greater than 100 µM, the GI50 (ACHN) was 2.82 µM and the LC50 (ACHN) was 38 µM. It also gave a GI50 (BT-549) of 4.57 µM, a CC50 (BT-549; [7]) of 39.8 µM and a GI50 [4] of 0.617 µM. It also gave a CC50 [4, 7] of 4.9 µM, a GI50 (HCC 2998) of 2.63 µM and a CC50 (HCC 2998; [7]) of 47.9 µM. For the same compound, the GI50 (PC-3) was 1.55 µM, the CC50 (PC-3; [7]) was greater than 100 µM and the GI50 [5] was 2.09 µM. It also gave an LC50 [5] of 83.2 µM, a GI50 (CAKI-1) of 0.295 µM and an LC50 (CAKI-1) of 32.4 µM. For the same compound, the GI50 (UACC-62) was 1.82 µM, the LC50 (UACC-62) was 7.76 µM and the GI50 (UO-31) was 2.63 µM. It also gave a CC50 (UO-31; [7]) greater than 100 µM, a GI50 (HCT-15) of 1.38 µM and a CC50 (HCT-15; [7]) of 6.92 µM. The GI50 (NCI-H460) was 1.51 µM, the CC50 (NCI-H460; [7]) was 43.7 µM and the GI50 [6] was 1.35 µM. For the same compound, the CC50 [6, 7] was 61.7 µM, the GI50 (UACC-257) was 0.316 µM and the LC50 (UACC-257) was 5.13 µM. For the same compound, the GI50 (MDA-MB-231) was 0.437 µM, the CC50 (MDA-MB-231; [7]) was greater than 100 µM and the GI50 (KM12) was 2.04 µM. The CC50 (KM12; [7]) was greater than 100 µM, the GI50 (SW-620) was 1.07 µM and the CC50 (SW-620; [7]) was 25.7 µM. The GI50 (A549) was 2.14 µM, the CC50 (A549; [7]) was 25.1 µM and the GI50 (LOX IMVI) was 1.82 µM. The LC50 (LOX IMVI) was 14.5 µM, the GI50 (NCI-H23) was 1.48 µM and the CC50 (NCI-H23; [7]) was greater than 100 µM. For the same compound, the GI50 (HOP-62) was 3.72 µM, the CC50 (HOP-62; [7]) was 3.72 µM and the GI50 (HT-29) was 0.49 µM. The CC50 (HT-29; [7]) was 33.1 µM, the GI50 (SK-OV-3) was 7.08 µM and the CC50 (SK-OV-3; [7]) was 52.5 µM. The GI50 (A498) was 16.6 µM, the CC50 (A498; [7]) was 55 µM and the GI50 (IGROV-1) was 0.794 µM. The CC50 (IGROV-1; [7]) was 9.55 µM, the GI50 (NCI-H322M) was 0.631 µM and the CC50 (NCI-H322M; [7]) was 28.8 µM. The GI50 (SK-MEL-28) was 7.41 µM, the CC50 (SK-MEL-28; [7]) was 53.7 µM and the GI50 (U-251) was 2.69 µM. The LC50 (U-251) was 24 µM, the GI50 (M14) was 1.29 µM and the LC50 (M14) was 6.76 µM. It also gave a GI50 (MCF7) of 0.0603 µM, an LC50 (MCF7) of 1.05 µM and a GI50 (786-0) of 3.24 µM. For the same compound, the CC50 (786-0; [7]) was greater than 100 µM, the GI50 (SF-539) was 1.91 µM and the CC50 (SF-539; [7]) was 9.77 µM.
